Patent US9550752B2, “Triazolinthione derivatives” (priority 2013, dated 2017)
Marks after values point to notes of the source that are not given here.

Conditions: method [a]: pH 2.7, 0.1% formic acid in water/acetonitrile; Table 1, formula (I)

| LogP | SMILES |
| --- | --- |
| 1.60^[a] | OC(Cc1ccc2ccccc2n1)(Cn1ncnc1S)C1(Cl)CC1 (stereo not shown) [Example I-7] |

Same assay, conditions: method [a]: pH 2.7, 0.1% formic acid in water/acetonitrile; Table 2, formula (XXI)

| SMILES | LogP |
| --- | --- |
| OC(Cc1ccncc1Cl)(Cn1cncn1)c1ccc2oc3ccccc3c2c1 (stereo not shown) [XXI-85] | 2.40^[a] |

Same assay, conditions: method [a]: pH 2.7; Table 3, formula (V)

| SMILES | LogP |
| --- | --- |
| O=C(Cc1ccc(Cl)nc1)C1(Cl)CC1 [Example V-6] | 2.34 |
| CC(C)(C)C(=O)Cc1ccncc1 [Example V-20] | 0.35 |
| O=C(Cc1cccnc1Cl)C(CF)(CF)CF [Example V-25] | 1.98^[a] |
| CC(C)(C)C(=O)Cc1cccnc1 [Example V-19] | 0.41 |
| CC(C)C(C)(C)C(=O)Cc1ccncc1Cl [Example V-18] | 3.00^[a] |
| CC(C)(C)C(=O)Cc1cnc2ccccc2c1 [Example V-14] | 1.60^[a] |
| CC(C)(C)C(=O)Cc1ncc(Cl)cc1Cl [Example V-13] | 3.33^[a] |

Same assay, conditions: method [a]: pH 2.7; Table 4, formula (XII)

| SMILES | LogP |
| --- | --- |
| CC(C)(C)C1(Cc2ncc(Cl)cc2Cl)CO1 (stereo not shown) [XII-6] | 4.06^[a] |
| CC(C)(C)C1(Cc2cnc3ccccc3c2)CO1 (stereo not shown) [XII-7] | 1.86^[a] |
| CC(C)(C)C1(Cc2ccncc2Cl)CO1 (stereo not shown) [XII-10] | 2.80^[a] |
| CCC(C)(C)C1(Cc2ccncc2Cl)CO1 (stereo not shown) [XII-34] | 3.33^[a] |
| CCC(C)(C)C1(Cc2ccnc(Cl)c2)CO1 (stereo not shown) [XII-18] | 3.51^[a] |
| CC(C)(C)C1(Cc2cccnc2Cl)CO1 (stereo not shown) [XII-9] | 2.97 |
| CC(C)C(C)(C)C1(Cc2ccncc2F)CO1 (stereo not shown) [XII-17] | 3.19^[a] |
| CC(C)(C)C1(Cc2ccncc2F)CO1 (stereo not shown) [XII-12] | 2.31^[a] |
| CC(C)C(C)(C)C1(Cc2cc(Cl)ncc2F)CO1 (stereo not shown) [XII-24] | 4.34^[a] |
| CCC(C)(C)C1(Cc2ccncc2F)CO1 (stereo not shown) [XII-15] | 2.76^[a] |
| CC(C)C(C)(C)C1(Cc2ccnc(Cl)c2)CO1 (stereo not shown) [XII-21] | 3.94^[a] |
| CC(C)(C)C1(Cc2cc(Cl)ncc2F)CO1 (stereo not shown) [XII-28] | 3.42^[a] |
| CCC(C)(C)C1(Cc2cc(Cl)ncc2F)CO1 (stereo not shown) [XII-27] | 3.89^[a] |
| CCCC(C)(C)C1(Cc2ccncc2Cl)CO1 (stereo not shown) [XII-57] | 2.03^[a] |
| CCC(C)(C)C1(Cc2cc(F)ncc2Cl)CO1 (stereo not shown) [XII-40] | 4.17^[a] |

Same assay, conditions: method [b]: pH 7.8; Table 3, formula (V)

| SMILES | LogP |
| --- | --- |
| O=C(Cc1ccc(Cl)nc1)C1(Cl)CC1 [Example V-6] | 2.30 |
| CC(C)(C)C(=O)Cc1ccncc1 [Example V-20] | 1.75 |
| CC(C)(C)C(=O)Cc1cccnc1 [Example V-19] | 1.71 |

Same assay, conditions: method [b]: pH 7.8; Table 4, formula (XII)

| SMILES | LogP |
| --- | --- |
| CC(C)(C)C1(Cc2cccnc2Cl)CO1 (stereo not shown) [XII-9] | 2.96 |

Same assay, conditions: pH 2.7

| SMILES | LogP |
| --- | --- |
| CC1(C(O)(Cc2cccnc2Cl)Cn2ncnc2S)CC1 (stereo not shown) [Example I-15] | 2.14^[a] |
| OC(Cc1cccnc1Cl)(Cn1ncnc1S)C1(Cl)CC1 (stereo not shown) [Example I-4] | 2.15^[a] |
| CC(C)(C)C(O)(Cc1ccncc1F)Cn1ncnc1S (stereo not shown) [Example I-18] | 1.79^[a] |
| CC(C)(C)C(O)(Cc1ccnc2ccccc12)Cn1ncnc1S (stereo not shown) [Example I-9] | 1.59^[a] |
| CC1(C(O)(Cc2ccncc2Cl)Cn2ncnc2S)CC1 (stereo not shown) [Example I-16] | 1.96^[a] |
| CCC(C)(C)C(O)(Cc1ccncc1Cl)Cn1ncnc1S (stereo not shown) [Example I-20] | 2.50^[a] |
| OC(Cc1ccncc1F)(Cn1ncnc1S)C1(Cl)CC1 (stereo not shown) [Example I-19] | 1.65^[a] |
| CC(C)(C)C(O)(Cc1ccncc1Cl)Cn1ncnc1S (stereo not shown) [Example I-2] | 2.14^[a] |
| CC(CF)(CF)C(O)(Cc1ccncc1F)Cn1ncnc1S (stereo not shown) [Example I-22] | 1.58^[a] |
| CC(C)(C)C(O)(Cc1ccc(Cl)c(Cl)n1)Cn1ncnc1S (stereo not shown) [Example I-14] | 3.00^[a] |
| OC(Cc1ccnc2ccccc12)(Cn1ncnc1S)C1(Cl)CC1 (stereo not shown) [Example I-12] | 1.37^[a] |

Now from value to molecule:

| LogP | SMILES |
| --- | --- |
| 2.02^[a] | OC(Cc1ccnc(Cl)c1F)(Cn1cncn1)C1(Cl)CC1 (racemic) [XXI-65] |
| 2.40^[a] | OC(CCc1ccc(Cl)cc1)(Cc1ccncc1Cl)Cn1cncn1 (stereo not shown) [XXI-74] |
| 1.86^[a] | OC(COc1ccc(F)cc1)(Cc1ccncc1Cl)Cn1cncn1 (stereo not shown) [XXI-84] |
| 1.23^[a] | OC(Cc1ccnc(Cl)c1F)(Cn1cncn1)c1ccc(Cl)nc1 (stereo not shown) [XXI-91] |
| 2.55^[a] | OC(Cc1ccc(Cl)nc1Cl)(Cn1cncn1)C1(Cl)CC1 (racemic) [XXI-58] |
| 2.02^[a] | OC(Cc1cc(Cl)ccn1)(Cn1cncn1)C1(Cl)CC1 (racemic) [XXI-52] |
| 1.10^[a] | OC(Cc1ccncn1)(Cn1cncn1)C1(Cl)CC1 (racemic) [XXI-55] |
| 2.34^[a] | OC(Cc1ccccc1F)(Cc1cc(Cl)ncc1F)Cn1cncn1 (stereo not shown) [XXI-78] |
| 1.76^[a] | CC(C)(CCl)C(O)(Cc1ccncc1Cl)Cn1cncn1 (stereo not shown) [XXI-95] |
| 1.17^[a] | CC(C)(C)C(O)(Cc1ccnc2ccccc12)Cn1cncn1 (racemic) [XXI-107] |
| 1.74^[a] | CC(C)(C)C(O)(Cc1ccncc1Cl)Cn1cncn1 (stereo not shown) [XXI-11] |
| 2.86^[a] | CC(C)(C)C(O)(Cc1cc(Cl)cc(Cl)n1)Cn1cncn1 (racemic) [XXI-108] |
| 2.30^[a] | OC(Cc1cc(F)ncc1Cl)(Cn1cncn1)C1(Cl)CC1 (stereo not shown) [XXI-94] |
| 1.41^[a] | CC(C)(C)C(O)(Cc1ccncc1F)Cn1cncn1 (racemic) [XXI-103] |
| 2.01^[a] | CC(C)(C)C(O)(Cc1nccnc1Cl)Cn1cncn1 (racemic) [XXI-115] |
| 2.69^[a] | OC(Cc1cccc(Cl)c1)(Cc1cc(Cl)ncc1F)Cn1cncn1 (stereo not shown) [XXI-79] |
| 2.84^[a] | CC(C)(Oc1ccc(Cl)cc1)C(O)(Cc1ccncc1Cl)Cn1cncn1 (stereo not shown) [XXI-75] |
| 1.48^[a] | COC(C)(C)C(O)(Cc1ccncc1Cl)Cn1cncn1 (racemic) [XXI-123] |
| 1.76^[a] | OC(Cc1ccnc(Cl)c1)(Cn1cncn1)C1(Cl)CC1 (racemic) [XXI-44] |
| 2.29^[a] | OC(CCc1ccccc1Cl)(Cc1ccncc1Cl)Cn1cncn1 (stereo not shown) [XXI-73] |

| LogP | SMILES |
| --- | --- |
| 2.67^[a] | CCOC(=O)OC(Cc1cccnc1Cl)(Cn1cncn1)C(C)(C)C (racemic) [XXI-121] |
| 1.96^[a] | OC(Cc1nccnc1Br)(Cn1cncn1)C1(Cl)CC1 (stereo not shown) [XXI-76] |
| 2.88^[a] | OC(Cc1ncc(Cl)cc1Cl)(Cn1cncn1)C1(Cl)CC1 (racemic) [XXI-102] |
| 2.34^[a] | CC(C)(C)C(O)(Cc1c(Cl)cncc1Cl)Cn1cncn1 (racemic) [XXI-125] |
| 1.66^[a] | OC(Cc1cc(Cl)ncc1F)(Cn1cncn1)C1(F)CC1 (racemic) [XXI-46] |
| 2.39^[a] | OC(Cc1ccnc(Cl)c1Cl)(Cn1cncn1)C1(Cl)CC1 (stereo not shown) [XXI-87] |
| 1.51^[a] | CC(C)(C)C(O)(Cc1ccc2ccccc2n1)Cn1cncn1 (racemic) [XXI-105] |
| 2.16^[a] | CC(C)(C)C(O)(Cc1cc(Cl)ncc1F)Cn1cncn1 (racemic) [XXI-113] |
| 2.53^[a] | OC(Cc1cc(Cl)ncc1Cl)(Cn1cncn1)C1(Cl)CC1 (racemic) [XXI-63] |
| 2.10^[a] | Cc1ncc(CC(O)(Cn2cncn2)C(C)(C)C)nc1Cl (racemic) [XXI-116] |
| 2.53^[a] | OC(Cc1cc(Cl)cnc1Cl)(Cn1cncn1)C1(Cl)CC1 (stereo not shown) [XXI-88] |
| 1.64^[a] | OC(Cc1cccnc1F)(Cn1cncn1)C1(Cl)CC1 (racemic) [XXI-56] |
| 1.46^[a] | OC(Cc1ccncc1Cl)(Cn1cncn1)C1CCC1 (stereo not shown) [XXI-82] |
| 2.28^[a] | OC(Cc1ncnc(Cl)c1Cl)(Cn1cncn1)C1(Cl)CC1 (racemic) [XXI-62] |
| 2.07^[a] | OC(Cc1nccnc1I)(Cn1cncn1)C1(Cl)CC1 (racemic) [XXI-59] |
| 2.30^[a] | CC(C)(C)C(O)(Cc1cccc(Cl)n1)Cn1cncn1 (racemic) [XXI-110] |
| 1.43^[a] | OC(Cc1ccncc1Cl)(CC1CC1)Cn1cncn1 (racemic) [XXI-127] |
| 1.94^[a] | CC(C)(C)C(O)(Cc1cccnc1Cl)Cn1cncn1 (stereo not shown) [XXI-10] |
| 3.53^[a] | Cc1cccc2cc(CC(O)(Cn3cncn3)C3(Cl)CC3)c(Cl)nc12 (stereo not shown) [XXI-89] |
| 1.98^[a] | CC(C)(C)C(O)(Cc1ccc(Cl)nc1)Cn1cncn1 (stereo not shown) [XXI-9] |

| LogP | SMILES |
| --- | --- |
| 2.82^[a] | CC(C)(C)C(O)(Cc1nc(Cl)ccc1Cl)Cn1cncn1 (racemic) [XXI-130] |
| 1.66^[a] | CC(CF)(CF)C(O)(Cc1ccnc(Cl)c1)Cn1cncn1 (racemic) [XXI-41] |
| 1.73^[a] | OC(Cc1ccccc1F)(Cc1ccnc(Cl)c1F)Cn1cncn1 (stereo not shown) [XXI-90] |
| 1.90^[a] | CCOC(C)(C)C(O)(Cc1ccncc1Cl)Cn1cncn1 (racemic) [XXI-129] |
| 1.23^[a] | OC(Cc1ccnc(Cl)c1F)(Cn1cncn1)C1(F)CC1 (stereo not shown) [XXI-92] |
| 2.23^[a] | OC(Cc1ccc(Cl)cn1)(Cn1cncn1)C1(Cl)CC1 (stereo not shown) [XXI-72] |
| 0.84^[a] | Cc1cc(C(O)(Cc2ccncc2Cl)Cn2cncn2)nn1C (stereo not shown) [XXI-71] |
| 2.39^[a] | CC(C)(C)C(O)(Cc1cc(F)ncc1Cl)Cn1cncn1 (racemic) [XXI-126] |
| 1.38^[a] | OC(Cc1ccnc(Cl)c1)(Cn1cncn1)c1ccc(Cl)nc1 (racemic) [XXI-43] |
| 1.60^[a] | OC(Cc1cc(Cl)ncc1F)(Cn1cncn1)c1ccc(Cl)nc1 (racemic) [XXI-47] |
| 1.88^[a] | COc1nccnc1CC(O)(Cn1cncn1)C1(Cl)CC1 (stereo not shown) [XXI-77] |
| 0.52^[a] | Cc1ccnc(CC(O)(Cn2cncn2)C2(Cl)CC2)c1 (racemic) [XXI-57] |
| 2.06^[a] | OC(Cc1cc(Cl)ncc1F)(Cn1cncn1)C1(Cl)CC1 (racemic) [XXI-45] |
| 1.54^[a] | OC(Cc1ccnc(Cl)c1F)(Cn1cncn1)c1cccnc1Cl (racemic) [XXI-64] |
| 1.87^[a] | CC(CF)(CF)C(O)(Cc1ccnc(Cl)c1F)Cn1cncn1 (racemic) [XXI-66] |
| 2.27^[a] | CCC(C)(C)C(O)(Cc1ccnc(Cl)c1)Cn1cncn1 (racemic) [XXI-111] |
| 3.08^[a] | OC(Cc1cc(Oc2ccc(Cl)cc2)nnc1Cl)(Cn1cncn1)C1(Cl)CC1 (racemic) [XXI-60] |
| 2.48^[a] | CC(C)(Oc1ccc(F)cc1)C(O)(Cc1ccncc1Cl)Cn1cncn1 (stereo not shown) [XXI-96] |

Same assay, conditions: pH 7.8

| LogP | SMILES |
| --- | --- |
| 1.96^[b]; | CC(C)(CCl)C(O)(Cc1ccncc1Cl)Cn1cncn1 (stereo not shown) [XXI-95] |
| 2.56^[b]; | CCOC(=O)OC(Cc1cccnc1Cl)(Cn1cncn1)C(C)(C)C (racemic) [XXI-121] |
| 1.90^[b]; | CC(C)(C)C(O)(Cc1cccnc1Cl)Cn1cncn1 (stereo not shown) [XXI-10] |
| 1.98^[b]; | CC(C)(C)C(O)(Cc1ccc(Cl)nc1)Cn1cncn1 (stereo not shown) [XXI-9] |
| 2.04^[b]; | CCOC(C)(C)C(O)(Cc1ccncc1Cl)Cn1cncn1 (racemic) [XXI-129] |
| 2.60^[b]; | CC(C)(Oc1ccc(F)cc1)C(O)(Cc1ccncc1Cl)Cn1cncn1 (stereo not shown) [XXI-96] |
